Where two headings read alike, the source gives them in different places.
How the values were obtained:
[1] = Potentiation of amphetamine: stereotypies in rats after d-amphetamine sulphate; format: in vivo; conditions: 30 min before 5 mg/kg d-amphetamine sulphate i.p., over 3 hours, maximum 24
Method: 1. POTENTIATION OF AMPHETAMINE
The test compound is administered intraperitoneally to rats 30 minutes before the intraperitoneal injection of 5 mg/kg of d-amphetamine sulphate. The intensity of the stereotypies over a period of 3 hours is assessed by attributing a number from 0 to 4. Table I indicates the sum of the assessments as a function of the doses administered. The maximum assessment is 24.

[2] = Anorexigenic activity in dogs; format: in vivo, Beagle dogs; conditions: Canis lupus familiaris, po, read-out: percentage inhibition of consuming food
Method: 2. ANOREXIGENIC ACTIVITY IN DOGS
Beagle dogs are conditioned to take their food over the course of 5 minutes once per day. The test compound is administered orally in the form of a single dose of 10 mg/kg one hour before the food is presented. The amount of food ingested is measured at regular intervals.
Table II gives the percentage inhibition of consuming food as a function of the time after treatment.

[3] = Anorexigenic activity in rats; format: in vivo, Sprague Dawley male rats; conditions: for ED50: Rattus norvegicus, oral, Litchfield and Wilcoxon method, read-out: ED50 (50% inhibiting dose in relation to the consumption of food)
Method: 3. ANOREXIGENIC ACTIVITY IN RATS
Two batches of three Sprague Dawley male rats (130 - 180 g) are conditioned to take their daily food over the course of 7 hours. Water is given as desired. The test compound is administered orally 30 minutes before the food is presented. The amount ingested is measured 1 hour and 2 hours later. The 50% inhibiting dose in relation to the consumption of food (ED50) and the confidence range are calculated according to the Litchfield and Wilcoxon method.
Table III gives the percentage inhibition in relation to the consumption of food as a function of the doses administered.

[4] = Toxicity, isolated mice (death rate); conditions: mouse, in vivo, 4 hours after treatment, read-out: percentage death rate
Method: (§1) Batches of 10 mice are placed in boxes covered with grids (20 × 10 × 10 cm), either isolated individually, or in groups of 10. The test compound is administered orally to them. The death rate is noted 4 hours after the treatment.
(§2) Tables IV and V below give the percentage death rate for the products of Examples XXIV and XXVII compared with d-amphetamine sulphate.

[5] = Toxicity, mice in groups (death rate); conditions: mouse, in vivo, 4 hours after treatment, read-out: percentage death rate
Method: as §1, §2

[6] = Cardiovascular activity in anaesthetised dogs; format: in vivo; conditions: for pulmonary and systemic hypertension: amphetamine injected intravenously
Text: 5. CARDIOVASCULAR ACTIVITY

[7] = Clinical activity (food intake in man); format: in vivo; conditions: daily dose of 50 mg
Method: The compounds are preferably presented in a form suitable for oral administration, for example in the form of gelatin-coated pills containing 25 mg of the active ingredient.

SMILES	sum of the assessments of intensity of stereotypies ([1]; 1 mg/kg intraperitoneal)	sum of the assessments of intensity of stereotypies ([1]; 4 mg/kg intraperitoneal)	sum of the assessments of intensity of stereotypies ([1]; 16 mg/kg intraperitoneal)	inhibition in vivo at 10 mg/kg ([2]; 1 h)	inhibition in vivo at 10 mg/kg ([2]; 2 h)	inhibition in vivo at 10 mg/kg ([2]; 4 h)	inhibition in vivo at 10 mg/kg ([2]; 24 h)	inhibition in vivo at 10 mg/kg ([2]; 48 h)	percentage inhibition in relation to the consumption of food ([3]; 1 mg/kg oral, 1 hr)	percentage inhibition in relation to the consumption of food ([3]; 1 mg/kg oral, 2 hrs)	percentage inhibition in relation to the consumption of food ([3]; 2 mg/kg oral, 1 hr)	percentage inhibition in relation to the consumption of food ([3]; 2 mg/kg oral, 2 hrs)	percentage inhibition in relation to the consumption of food ([3]; 4 mg/kg oral, 1 hr)	percentage inhibition in relation to the consumption of food ([3]; 4 mg/kg oral, 2 hrs)	percentage inhibition in relation to the consumption of food ([3]; 8 mg/kg oral, 1 hr)	percentage inhibition in relation to the consumption of food ([3]; 8 mg/kg oral, 2 hrs)	percentage inhibition in relation to the consumption of food ([3]; 16 mg/kg oral, 1 hr)	percentage inhibition in relation to the consumption of food ([3]; 16 mg/kg oral, 2 hrs)	ED50 ([3]; 1 hr)	ED50 ([3]; 2 hrs)	also measured
CC1NC(C2CC2)CC1c1ccc(Cl)cc1.Cl (stereo not drawn) [XXIV, 2-cyclopropyl-4-(p-chlorophenyl)-5-methylpyrrolidine hydrochloride]	7	22	24	100%	100%	100%	80%	50%	6%	5%	44%	53%	47%	34%	77%	71%	77%	80%	3.5 mg/kg	5.6 mg/kg	mortality at 4 h ([4]; 16 mg/kg oral): 0%; mortality at 4 h ([4]; 32 mg/kg oral): 0%; mortality at 4 h ([4]; 64 mg/kg oral): 0%; mortality at 4 h ([4]; 128 mg/kg oral): 27%; mortality at 4 h ([5]; 16 mg/kg oral): 0%; mortality at 4 h ([5]; 32 mg/kg oral): 0%; mortality at 4 h ([5]; 64 mg/kg oral): 0%; mortality at 4 h ([5]; 128 mg/kg oral): 0%; systemic hypotension [6]: cause systemic hypotension; pulmonary and systemic hypertension [6]: do not cause these phenomena; amount of food ingested daily [7]: a decrease in the amount of food ingested daily
CC1NC(C2CC2)CC1c1ccc(Cl)c(Cl)c1.Cl (stereo not drawn) [XXVII, 2-cyclopropyl-4-(3',4'-dichlorophenyl)-5-methylpyrrolidine hydrochloride]	21	23	24	100%	100%	100%	100%	100%	39%	36%	28%	37%	58%	55%	84%	83%	100%	100%	2.3 mg/kg	2.2 mg/kg	percentage inhibition in relation to the consumption of food ([3]; 0.5 mg/kg oral, 1 hr): 25%; percentage inhibition in relation to the consumption of food ([3]; 0.5 mg/kg oral, 2 hrs): 30%; mortality at 4 h ([4]; 16 mg/kg oral): 0%; mortality at 4 h ([4]; 32 mg/kg oral): 20%; mortality at 4 h ([4]; 64 mg/kg oral): 70%; mortality at 4 h ([5]; 16 mg/kg oral): 0%; mortality at 4 h ([5]; 32 mg/kg oral): 0%; mortality at 4 h ([5]; 64 mg/kg oral): 0%; mortality at 4 h ([5]; 128 mg/kg oral): 70%; systemic hypotension [6]: cause systemic hypotension; pulmonary and systemic hypertension [6]: do not cause these phenomena; amount of food ingested daily [7]: a decrease in the amount of food ingested daily

Reference: patent US4005103A, “Pyrrolidine derivatives” (priority 1973, dated 1977)
